Measurements from ChEMBL document CHEMBL1154382, “Preliminary SAR analysis of novel antiproliferative N(6),5'-bis-ureidoadenosine derivatives” (2009).

Tests used:
Type in all cases: functional
Details in all cases: values are per cent of control
HL-60(TB) = assay: Antiproliferative activity against human HL-60(TB) cells at 10 uM assessed as cell growth inhibition relative to control
CAKI-1 = assay: Antiproliferative activity against human Caki1 cells at 10 uM assessed as cell growth inhibition relative to control
NCI-H460 = assay: Antiproliferative activity against human NCI-H460 cells at 10 uM assessed as cell growth inhibition relative to control
SW-620 = assay: Antiproliferative activity against human SW620 cells at 10 uM assessed as cell growth inhibition relative to control
DU-145 = assay: Antiproliferative activity against human DU145 cells at 10 uM assessed as cell growth inhibition relative to control
PC-3 = assay: Antiproliferative activity against human PC3 cells at 10 uM assessed as cell growth inhibition relative to control
BT-549 = assay: Antiproliferative activity against human BT549 cells at 10 uM assessed as cell growth inhibition relative to control
SF-539 = assay: Antiproliferative activity against human SF539 cells at 10 uM assessed as cell growth inhibition relative to control
U-251 = assay: Antiproliferative activity against human U251 cells at 10 uM assessed as cell growth inhibition relative to control
NCI-H23 = assay: Antiproliferative activity against human NCI-H23 cells at 10 uM assessed as cell growth inhibition relative to control
OVCAR-4 = assay: Antiproliferative activity against human OVCAR4 cells at 10 uM assessed as cell growth inhibition relative to control
KM12 = assay: Antiproliferative activity against human KM12 cells at 10 uM assessed as cell growth inhibition relative to control
RXF 393 = assay: Antiproliferative activity against human RXF393 cells at 10 uM assessed as cell growth inhibition relative to control
UO-31 = assay: Antiproliferative activity against human UO31 cells at 10 uM assessed as cell growth inhibition relative to control
M14 = assay: Antiproliferative activity against human M14 cells at 10 uM assessed as cell growth inhibition relative to control
UACC-62 = assay: Antiproliferative activity against human UACC62 cells at 10 uM assessed as cell growth inhibition relative to control
MDA-MB-231 = assay: Antiproliferative activity against human MDA-MB-231 cells at 10 uM assessed as cell growth inhibition relative to control
COLO 205 = assay: Antiproliferative activity against human COLO205 cells at 10 uM assessed as cell growth inhibition relative to control
EKVX = assay: Antiproliferative activity against human EKVX cells at 10 uM assessed as cell growth inhibition relative to control
SF-268 = assay: Antiproliferative activity against human SF268 cells at 10 uM assessed as cell growth inhibition relative to control
HCC 2998 = assay: Antiproliferative activity against human HCC2998 cells at 10 uM assessed as cell growth inhibition relative to control
K562 = assay: Antiproliferative activity against human K562 cells at 10 uM assessed as cell growth inhibition relative to control
A549 = assay: Antiproliferative activity against human A549 cells at 10 uM assessed as cell growth inhibition relative to control
HCT-116 = assay: Antiproliferative activity against human HCT116 cells at 10 uM assessed as cell growth inhibition relative to control
HT-29 = assay: Antiproliferative activity against human HT-29 cells at 10 uM assessed as cell growth inhibition relative to control
HOP-92 = assay: Antiproliferative activity against human HOP92 cells at 10 uM assessed as cell growth inhibition relative to control
SK-OV-3 = assay: Antiproliferative activity against human SKOV3 cells at 10 uM assessed as cell growth inhibition relative to control
SK-MEL-2 = assay: Antiproliferative activity against human SK-MEL-2 cells at 10 uM assessed as cell growth inhibition relative to control
SK-MEL-28 = assay: Antiproliferative activity against human SK-MEL-28 cells at 10 uM assessed as cell growth inhibition relative to control
NCI-H522 = assay: Antiproliferative activity against human NCI-H522 cells at 10 uM assessed as cell growth inhibition relative to control
[1] = Antiproliferative activity against human Hs 578T cells at 10 uM assessed as cell growth inhibition relative to control
UACC-257 = assay: Antiproliferative activity against human UACC257 cells at 10 uM assessed as cell growth inhibition relative to control
ACHN = assay: Antiproliferative activity against human ACHN cells at 10 uM assessed as cell growth inhibition relative to control
[2] = Antiproliferative activity against human […] cells at 10 uM assessed as cell growth inhibition relative to control
OVCAR-5 = assay: Antiproliferative activity against human OVCAR5 cells at 10 uM assessed as cell growth inhibition relative to control
SN12C = assay: Antiproliferative activity against human SN12C cells at 10 uM assessed as cell growth inhibition relative to control
MDA-MB-468 = assay: Antiproliferative activity against human MDA-MB-468 cells at 10 uM assessed as cell growth inhibition relative to control
IGROV-1 = assay: Antiproliferative activity against human IGROV1 cells at 10 uM assessed as cell growth inhibition relative to control
SNB-75 = assay: Antiproliferative activity against human SNB75 cells at 10 uM assessed as cell growth inhibition relative to control
SNB-19 = assay: Antiproliferative activity against human SNB19 cells at 10 uM assessed as cell growth inhibition relative to control
CCRF-CEM = assay: Antiproliferative activity against human CCRF-CEM cells at 10 uM assessed as cell growth inhibition relative to control
Malme-3M = assay: Antiproliferative activity against human MALME-3M cells at 10 uM assessed as cell growth inhibition relative to control
OVCAR-3 = assay: Antiproliferative activity against human OVCAR-3 cells at 10 uM assessed as cell growth inhibition relative to control
NCI-H322M = assay: Antiproliferative activity against human NCI-H322M cells at 10 uM assessed as cell growth inhibition relative to control
NCI-H226 = assay: Antiproliferative activity against human NCI-H226 cells at 10 uM assessed as cell growth inhibition relative to control
HOP-62 = assay: Antiproliferative activity against human HOP62 cells at 10 uM assessed as cell growth inhibition relative to control
OVCAR-8 = assay: Antiproliferative activity against human OVCAR8 cells at 10 uM assessed as cell growth inhibition relative to control
LOX IMVI = assay: Antiproliferative activity against human LOXIMVI cells at 10 uM assessed as cell growth inhibition relative to control
MOLT-4 = assay: Antiproliferative activity against human MOLT4 cells at 10 uM assessed as cell growth inhibition relative to control
T47D = assay: Antiproliferative activity against human T47D cells at 10 uM assessed as cell growth inhibition relative to control
HCT-15 = assay: Antiproliferative activity against human HCT15 cells at 10 uM assessed as cell growth inhibition relative to control
TK-10 = assay: Antiproliferative activity against human TK10 cells at 10 uM assessed as cell growth inhibition relative to control
786-0 = assay: Antiproliferative activity against human 786-0 cells at 10 uM assessed as cell growth inhibition relative to control
MCF7 = assay: Antiproliferative activity against human MCF7 cells at 10 uM assessed as cell growth inhibition relative to control
SK-MEL-5 = assay: Antiproliferative activity against human SK-MEL-5 cells at 10 uM assessed as cell growth inhibition relative to control
SF-295 = assay: Antiproliferative activity against human SF295 cells at 10 uM assessed as cell growth inhibition relative to control

CNC(=O)NC[C@H]1O[C@@H](n2cnc3c(NC(=O)Nc4ccccc4)ncnc32)[C@H](O[Si](C)(C)C(C)(C)C)[C@@H]1O[Si](C)(C)C(C)(C)C
growth, % of control at 10 µM (HL-60(TB)): 24%
growth, % of control at 10 µM (CAKI-1): 60%
growth, % of control at 10 µM (NCI-H460): -7%
growth, % of control at 10 µM (SW-620): 36%
growth, % of control at 10 µM (DU-145): 52%
growth, % of control at 10 µM (PC-3): 8%
growth, % of control at 10 µM (BT-549): 40%
growth, % of control at 10 µM (SF-539): 33%
growth, % of control at 10 µM (U-251): 17%
growth, % of control at 10 µM (NCI-H23): 36%
growth, % of control at 10 µM (OVCAR-4): 30%
growth, % of control at 10 µM (KM12): -4%
growth, % of control at 10 µM (RXF 393): -37%
growth, % of control at 10 µM (UO-31): 48%
growth, % of control at 10 µM (M14): 33%
growth, % of control at 10 µM (UACC-62): 42%
growth, % of control at 10 µM (MDA-MB-231): 38%
growth, % of control at 10 µM (COLO 205): -100%
growth, % of control at 10 µM (EKVX): 23%
growth, % of control at 10 µM (SF-268): 36%
growth, % of control at 10 µM (HCC 2998): -1%
growth, % of control at 10 µM (K562): 34%
growth, % of control at 10 µM (A549): 23%
growth, % of control at 10 µM (HCT-116): 0%
growth, % of control at 10 µM (HT-29): -68%
growth, % of control at 10 µM (HOP-92): -3%
growth, % of control at 10 µM (SK-OV-3): 78%
growth, % of control at 10 µM (SK-MEL-2): 57%
growth, % of control at 10 µM (SK-MEL-28): 60%
growth, % of control at 10 µM (NCI-H522): 46%
growth, % of control at 10 µM [1]: 61%
growth, % of control at 10 µM (UACC-257): 43%
growth, % of control at 10 µM (ACHN): 21%
growth, % of control at 10 µM [2]: 20%
growth, % of control at 10 µM (OVCAR-5): 69%
growth, % of control at 10 µM (SN12C): -79%
growth, % of control at 10 µM (MDA-MB-468): 36%
growth, % of control at 10 µM (IGROV-1): 53%
growth, % of control at 10 µM (SNB-75): 46%
growth, % of control at 10 µM (SNB-19): 76%
growth, % of control at 10 µM (CCRF-CEM): 43%
growth, % of control at 10 µM (Malme-3M): 49%
growth, % of control at 10 µM (OVCAR-3): -29%
growth, % of control at 10 µM (NCI-H322M): 87%
growth, % of control at 10 µM (NCI-H226): 49%
growth, % of control at 10 µM (HOP-62): 62%
growth, % of control at 10 µM (OVCAR-8): 33%
growth, % of control at 10 µM (LOX IMVI): 13%
growth, % of control at 10 µM (MOLT-4): 24%
growth, % of control at 10 µM (T47D): 14%
growth, % of control at 10 µM (HCT-15): 21%
growth, % of control at 10 µM (TK-10): 34%
growth, % of control at 10 µM (786-0): 17%
growth, % of control at 10 µM (MCF7): 0%
growth, % of control at 10 µM (SK-MEL-5): 48%
growth, % of control at 10 µM (SF-295): 45%
